From ChEMBL document CHEMBL4732213, “Discovery of novel ceramide analogs with favorable pharmacokinetic properties and combination with AKT inhibitor against colon cancer” (Eur J Med Chem, 2021) come the findings set out here.

For series [1], the system named is HT-29. Kind of series: Antiproliferative activity against human HT-29 cells measured after 72 hrs by sulforhodamine B assay. It is filed as functional, cell-based. Particulars: HT-29, 72 h. A general note: Sulforhodamine B stains cellular protein and so reports cell mass.
Series [2] in a line: AUC(0 to t) in BALB/c mouse at 10 mg/kg, iv. The format is ADME, organism-based. More on the design: dose 10 mg/kg. Particulars: in vivo.
Series [3] can be described thus: Cmax in BALB/c mouse at 50 mg/kg, ip. It is filed as ADME, organism-based. The arrangement: route intraperitoneal, dose 50 mg/kg. Particulars: in vivo.
Series [4] in a line: Half life in BALB/c mouse at 50 mg/kg, ip. It is filed as ADME, organism-based. Particulars: in vivo.
A short description of series [5]: AUC(0 to t) in BALB/c mouse at 50 mg/kg, ip. The format is ADME, organism-based. The arrangement: dose 50 mg/kg. The conditions noted are these: in vivo.
The nature of series [6]: Half life in BALB/c mouse at 10 mg/kg, iv. The conditions noted are these: in vivo. The format is ADME, organism-based.
The nature of series [7]: Tmax in BALB/c mouse at 50 mg/kg, ip. It is filed as ADME, organism-based. The conditions noted are these: in vivo.
The nature of series [8]: AUC(0 to infinity) in BALB/c mouse at 10 mg/kg, iv. It is filed as ADME, organism-based. The arrangement: route intravenous, time infinity, dose 10 mg/kg. Particulars: in vivo.
Series [9] is described as follows: AUC(0 to infinity) in BALB/c mouse at 50 mg/kg, ip. The arrangement: time infinity, route intraperitoneal, dose 50 mg/kg. Particulars: in vivo. The format is ADME, organism-based.
Series [10] concerns HT-29. The series can be described thus: Upregulation of p21 protein expression in human HT29 cells at 10 uM incubated for 24 hrs by Western blotting analysis. It is filed as functional, cell-based.
Series [11] concerns HT-29. The series can be described thus: Induction of apoptosis in human HT29 cells assessed as inhibition of AKT phosphorylation at 10 uM after 48 hrs by Western blotting analysis. It is filed as functional, cell-based.
For series [12], the system named is HT-29. The series can be described thus: Antitumor activity against human HT-29 cells xenografted in BALB/c nude mouse assessed as tumor growth inhibition at 50 mg/kg, po Q2D measured every 3 days by electronic caliper method. Particulars: HT-29, po, 72 h, time 3 day, read-out: TGI. It is filed as functional. On the technique in general: Xenograft models place foreign cells or tissue in a host animal.

Series [13] deals with HT-29. Kind of series: Induction of apoptosis in human HT29 cells at 7.5 uM after 48 hrs by Annexin-V-FITC/PI staining based flow cytometric analysis. The format is functional, cell-based. In general terms: A flow cytometer gives signals particle by particle.
Series [14] can be described thus: Toxicity in BALB/c nude mouse xenografted with human HT-29 cells assessed as effect on body weight at 50 mg/kg, po measured every 3 day by electronic caliper method. The format is organism-based. Particulars: in vivo, 72 h.
For series [15], the system named is HT-29. Kind of series: Down regulation of p-RB expression in human HT29 cells at 10 uM incubated for 24 hrs by Western blotting analysis. It is filed as functional, cell-based.
For series [16], the system named is HT-29. The series can be described thus: Induction of ROS generation in human HT29 cells at 10 uM after 16 hrs by flow cytometric analysis. It is filed as functional, cell-based.
The test system of series [17] is HT-29. Kind of series: Downregulation of c-Myc protein expression level in human HT29 cells at 10 uM incubated for 24 hrs by Western blotting analysis. The format is functional, cell-based.
Series [18] concerns HT-29. Kind of series: Induction of cell cycle arrest in human HT29 cells assessed as accumulation at G0/G1 phase at 10 uM after 24 hrs by PI staining based flow cytometry analysis. The format is functional.

Calls of active or inactive are those of the source.

A word on the IC50: it is the concentration that gives 50% inhibition. A lower IC50 goes with greater potency in that assay. `COc1ccc(CCC(CO)(CO)NC(C)=O)c2ccccc12`: the half-inhibitory concentration (IC50) in series [1] is > 80 µM.

Consider `CCCCCCCOc1ccc(CCC(CO)(CO)NC(=O)OCc2ccccc2)c2ccccc12`, for which the half-inhibitory concentration (IC50) in series [1] was 60.5 µM.

Molecule `CCCCCCCCc1ccc(CCC(CO)(CO)NC(=O)CCC)c2ccccc12` gave an IC50 in series [1] of 26.4 µM.

Take `CCCCCCCOc1ccc(CCC(CO)(CO)NC(=O)OCCCC)c2ccccc12`: the concentration for half-maximal inhibition (IC50) in series [1] came out at 22.4 µM.

With `CCCCCCCOc1ccc(CCC(CO)(CO)NC(=O)OC(C)(C)C)c2ccccc12`, half-maximal inhibition in series [1] (IC50) was put at 21.4 µM.

Molecule `CCCCCCCOc1ccc(CCC(CO)(CO)NC(=O)CCCCC)c2ccccc12` showed an IC50 in series [1] of 21.9 µM.

`CCCCCCCCCCCCCC(=O)NC(CO)(CO)CCc1ccc(CCCCCCCC)c2ccccc12`: the 50% inhibitory concentration (IC50) in [1] is > 80 µM.

With `C/C=C/C(=O)NC(CO)(CO)CCc1ccc(OCCCCCCC)c2ccccc12`, the midpoint of inhibition in [1], the IC50, lay at 36.4 µM.

On to `CC(=O)NC(CO)(CO)CCc1ccc(O)c2ccccc12`, for which the IC50 in series [1] was > 80 µM.

By AUC(0-t) is commonly meant exposure summed from dosing to a finite time, without extrapolation to infinity. As usually defined, the Cmax is the maximum level reached in the sampled fluid or tissue. As a reminder, the half-life is the time needed for the level to fall by half in the phase considered. A lower half-life goes with rapid decline. A word on the Tmax: it is the time at which the peak concentration occurs. As a reminder, the AUC(0-inf) is total exposure, with the tail of the curve extrapolated. Lower therefore signals less exposure. Turning to `CCCCCCCCCCCCC/C=C/[C@@H](O)[C@H](CO)NC(C)=O`, the AUC(0-t) in [2] worked out at 1620 ng·h/mL; in series [5] it was 4060 ng·h/mL. In addition, the maximum concentration (Cmax) in series [3] was 2740 ng/mL. This molecule came in with a 50% inhibitory concentration (IC50) in [1] of 25.9 µM. In addition, the values for the half-life in [4] and in [6] were 239 min and 305 min, respectively. In addition, the Tmax in [7] stood at 25 min. Besides, the total exposure AUC(0-inf) in series [8] turned out to be 1630 ng·h/mL; in series [9] it was 4090 ng·h/mL.

`NC1(c2ccc(-c3nc4ccn5c(=O)[nH]nc5c4cc3-c3ccccc3)cc2)CCC1` [MK-2206]: the outcome in series [10], in series [13], in series [15] and in series [17] was inactive. Moreover, the result in [11], in series [16] and in series [18] was Active. In series [12], the inhibition in vivo at 50 mg/kg amounted to 30.9%. Further, the Activity entry in series [14] is listed as “Non-Toxic”.

In the case of `CCCCCCCCc1ccc(C(O)CC(CO)(CO)NC(C)=O)c2ccccc12` (configuration not stated), in [1], the half-maximal inhibitory concentration (IC50) turned out to be 77.9 µM.

With `CCCCCCCCc1ccc(CCC(CO)(CO)NC(=O)C(C)CC)c2ccccc12` (configuration not stated), 25.6 µM corresponded to half-maximal inhibition in series [1] (IC50).

On to `CCCCc1ccc(COc2ccc(CCC(CO)(CO)NC(C)=O)c3ccccc23)cc1`, for which, in series [1], the IC50 was determined as 27.1 µM.

The molecule `CCCCCCCCc1ccc(CCC(CO)(CO)NC(=O)CCCCCCC)c2ccccc12` registered a half-inhibitory concentration (IC50) in series [1] of 22 µM.

In turn, `CCCCCCCOc1ccc(CCC(CO)(CO)NC(=O)CCCCCCC)c2ccccc12` had a half-inhibitory concentration (IC50) in series [1] of 18.8 µM.

Turning to `CCCCCCCCc1ccc(CCC(CO)(CO)NC(C)=O)c2ccccc12`, in series [1], half-maximal inhibition (IC50) was put at 36.5 µM.

For `CCCCCCCCc1ccc(CCC(CO)(CO)NC(=O)CCCCC)c2ccccc12`, the midpoint of inhibition in series [1], the IC50, lay at 20.3 µM.

For the molecule `CCCCCCCCCC(=O)NC(CO)(CO)CCc1ccc(CCCCCCCC)c2ccccc12`, the IC50 in series [1] is > 80 µM.

`CCCCc1ccc(Oc2ccc(CCC(CO)(CO)NC(C)=O)c3ccccc23)cc1`: in [1], the IC50 was > 80 µM.

As for `CCCCCCCCc1ccc(CCC(CO)(CO)NC(=O)c2ccccc2)c2ccccc12`, the midpoint of inhibition in series [1], the IC50, lay at 23 µM.
